# Measured values published in patent publication US20260133193A1, “COMPOSITIONS AND METHODS FOR TREATING INFLAMMATORY DISEASES” (University of Washington, priority 2018, published 2026).
# Test system: FcgRIIA on monocytes
# Experiment: FcgRIIA and CD11b on monocytes (PBMCs with R848, neutrophils or neutrophil supernatant)
# Format: cell-based, human
# Experimental: Since we observed prominent protease-mediated shedding of FcgRIIA in neutrophils, we next asked if activated neutrophils could induce shedding of FcgRIIA in other immune cells. PBMCs were co-incubated with neutrophils (PMNs) in the presence of R848 and a pan-protease inhibitor. Levels of FcgRIIA on monocytes (CD14+), and pDCs (CD304+) were determined by flow cytometry and expressed as FcgRIIA (% of control) as compared to PBMCs incubated in medium in absence of neutrophils. […]
# To determine if the loss of monocyte FcgRIIA was mediated through cell-cell interactions or due to a soluble neutrophil-derived factor, we added supernatant from TLR7/8-activated neutrophils to monocytes. Specifically, neutrophil supernatant, derived from non-stimulated (no, n=5) or R848-stimulated (R848, n=9) neutrophils, were added to monocytes in presence of indicated inhibitors (CMK; furin inhibitor, n=5, and Pan; pan-protease inhibitor, n=5) and monocyte FcgRIIA levels analyzed by flow cytometry. […]
# Neutrophils and PBMCs were incubated at a 2:1 ratio (500,000 vs 250,000 cells) with the pan-protease inhibitor (1×) for 30 minutes followed by R848 (2 μg/mL) for an additional 60 minutes and analyzed for FcgR levels by flow cytometry. […]
structure (smiles),measurement,setting,value
CCOCc1nc2c(N)nc3ccccc3c2n1CC(C)(C)O [R848],monocyte cell surface CD11b,R848,up-regulation of cell surface CD11b
same,monocyte cell surface FcgRIIA levels,flow cytometry,unchanged
